Measurements published in US20230322753A1, “HETEROARYL DERIVATIVE, METHOD FOR PREPARATION THEREOF, AND PHARMACEUTICAL COMPOSITION COMPRISING SAME AS ACTIVE INGREDIENT” (VORONOI INC., priority 2020, published 2023).

Tested on: Ba/F3 cells expressing EGFR Exon20 ins NPH
Test: Ba/F3 proliferation suppression activity, cells expressing EGFR Exon20 ins NPH
Type: cell-based
Settings: Mus musculus, BaF3, 72 hours, CellTiter-Glo
Protocol: A following experiment was carried out to evaluate the suppression activity of the compounds according to the present invention against the proliferation of Ba/F3 which expresses EGFR mutations.
For the Ba/F3 cells, a RPMI-1640 medium containing 10% FBS and 5 ng/ml IL-3 (R&D Systems) was used. The transduced Ba/F3 cells were cultured in a medium, which is same as the above medium, but 1 ug/ml puromycin (Invitrogen) was additionally added to.
24 hours before the treatment of the cells with the compounds, 3000 to 5000 cells were distributed into each well of a white clear bottom 96 well plate (Corning). The compounds were diluted in a dimethyl sulfoxide (e.g. dilution ratio of 3:1 and total 12 concentrations) and then injected by 0.5 ul respectively, such that a final concentration amounted to 0.3 nM to 50 uM. 72 hours after the treatment with the compounds, the measurement of live cells was made in such way that these cells were stored for 10 minutes at a room temperature using a CellTiter-Glo luminescent cell-viability reagent (Promega) and then their luminescence intensities were measured using a reader (i.e. Synergy Neo, Biotek). Each test was repeated three times.
resulting values were calculated as a cell growth ratio (%) compared to a control. Then, the graphs were drawn and the […] values were calculated by using a program, GraphPad Prism version 5.0.

| GI50 [nM] | SMILES |
| --- | --- |
| 50 to 500 | C=CC(=O)Nc1cc(Nc2cc(N3OCC[C@@H]3c3cccc(C(F)(F)F)c3)ncn2)c(OC)cc1N1CCC(N2CCC(N3CCN(C)CC3)CC2)CC1 [Compound 14] |
| 50 to 500 | C=CC(=O)Nc1cc(Nc2cc(N3OCC[C@@H]3c3cccc(C(F)(F)F)c3F)ncn2)c(OC)cc1N1CCC(N2CCN(C3CC3)[C@@H](C)C2)CC1 [Compound 67] |
| 50 to 500 | C=CC(=O)Nc1cc(Nc2nccc(N3OCC[C@@H]3c3ccccc3)n2)c(OC)cc1N(C)CCN(C)C [Compound 108] |
| 50 to 500 | C=CC(=O)Nc1cc(Nc2cc(N3OCC[C@@H]3c3cccc(C(F)(F)F)c3)ncn2)ccc1N1CCN(C)CC1 [Compound 31] |
| < 50 | C=CC(=O)Nc1cc(Nc2cc(N3OCC[C@@H]3c3cccc(C(F)(F)F)c3)ncn2)c(OC)cc1N1CCN(C2COC2)CC1 [Compound 23] |
| < 50 | C=CC(=O)Nc1cc(Nc2cc(N3OCC[C@@H]3c3cc(F)cc(C(F)(F)F)c3)ncn2)c(OC)cc1N(C)CCN(C)C [Compound 17] |
| < 50 | C=CC(=O)Nc1cc(Nc2cc(N3OCC[C@@H]3c3cc(F)cc(C(F)(F)F)c3)ncn2)c(OC)cc1N1CCN(CC)CC1 [Compound 4] |
| 50 to 500 | C=CC(=O)Nc1cc(Nc2cc(N3OCC[C@@H]3c3cccc(C(F)(F)F)c3)ncn2)c(OC)cc1N1CCCN(C2CC2)CC1 [Compound 29] |
| 50 to 500 | C=CC(=O)Nc1cc(Nc2cc(N3OCC[C@@H]3c3cccc(C(F)(F)F)c3)ncn2)c(OC)cc1N1C[C@H]2C[C@@H]1CO2 [Compound 28] |
| < 50 | C=CC(=O)Nc1cc(Nc2cc(N3OCC[C@@H]3c3ccc(F)c(C(F)(F)F)c3)ncn2)c(OC)cc1N1CC[C@@H](N(C)C)C1 [Compound 43] |
| < 50 | C=CC(=O)Nc1cc(Nc2cc(N3OCC[C@@H]3c3cccc(C(F)(F)F)c3F)ncn2)c(OC)cc1N1CCN(C)[C@@H](C)C1 [Compound 76] |
| < 50 | C=CC(=O)Nc1cc(Nc2ncc(C(=O)OC(C)C)c(-c3cn(C)c4ccccc34)n2)c(OC)cc1N(C)CCN(C)C [TAK788, reference compound] |
| 50 to 500 | C=CC(=O)Nc1cc(Nc2cc(N3OCC[C@@H]3c3ccc(Cl)c(C(F)(F)F)c3)ncn2)c(OC)cc1N1CCC(N2CCN(C3CC3)CC2)CC1 [Compound 34] |
| < 50 | C=CC(=O)Nc1cc(Nc2cc(N3OCC[C@@H]3c3cccc(C(F)(F)F)c3)ncn2)c(OC)cc1N1CCN(C)[C@H](C)C1 [Compound 8] |
| < 50 | C=CC(=O)Nc1cc(Nc2cc(N3OCC[C@@H]3c3cccc(C(F)(F)F)c3F)ncn2)c(OC)cc1N1CCC(N2CCC2)CC1 [Compound 71] |
| < 50 | C=CC(=O)Nc1cc(Nc2cc(N3OCC[C@@H]3c3ccc(F)c(C(F)(F)F)c3)ncn2)c(OC)cc1N1CCC(N2CCO[C@H](C)C2)CC1 [Compound 59] |
| 50 to 500 | C=CC(=O)Nc1cc(Nc2cc(N3OCC[C@@H]3c3cccc(C(F)(F)F)c3F)ncn2)c(OC)cc1N1CCC(N2CCN(C3CC3)C(C)(C)C2)CC1 [Compound 83] |
| 50 to 500 | C=CC(=O)Nc1cc(Nc2cc(N3OCC[C@@H]3c3cccc(C(F)(F)F)c3)ncn2)c(OC)cc1N1CCC(N2CCC(N3CCN(C4CC4)CC3)CC2)CC1 [Compound 13] |
| < 50 | C=CC(=O)Nc1cc(Nc2cc(N3OCC[C@@H]3c3ccc(F)c(C(F)(F)F)c3)ncn2)c(OC)cc1N1CCC(N(CC)CC)CC1 [Compound 47] |
| < 50 | C=CC(=O)Nc1cc(Nc2cc(N3OCC[C@@H]3c3ccc(F)c(C(F)(F)F)c3)ncn2)c(OC)cc1N1CCC(N2CCN(C3CC3)CC2)CC1 [Compound 49] |
| < 50 | C=CC(=O)Nc1cc(Nc2cc(N3OCC[C@@H]3c3cc(F)cc(C(F)(F)F)c3)ncn2)c(OC)cc1N1CCC(N2CCCC2)CC1 [Compound 18] |
| 50 to 500 | C=CC(=O)Nc1cc(Nc2cc(N3OCC[C@@H]3c3cccc(C(F)(F)F)c3F)ncn2)c(OC)cc1N1C[C@@H]2C[C@H]1CO2 [Compound 92] |
| 50 to 500 | C=CC(=O)Nc1cc(Nc2cc(N3OCC[C@@H]3c3cccc(C(F)(F)F)c3F)ncn2)c(OC)cc1N1CCC(N2CCCN(C3CC3)CC2)CC1 [Compound 77] |
| 50 to 500 | C=CC(=O)Nc1cc(Nc2cc(N3OCC[C@@H]3c3cccc(C(F)(F)F)c3F)ncn2)c(OC)cc1N1CCO[C@@H](C)C1 [Compound 75] |
| < 50 | C=CC(=O)Nc1cc(Nc2cc(N3OCC[C@@H]3c3cccc(C(F)(F)F)c3)ncn2)c(OC)cc1N1CCC(N(CC)CC)CC1 [Compound 20] |
| 50 to 500 | C=CC(=O)Nc1cc(Nc2cc(N3OCC[C@@H]3c3ccc(F)c(C(F)(F)F)c3)ncn2)c(OC)cc1N1C[C@@H]2C[C@H]1CO2 [Compound 54] |
| 50 to 500 | C=CC(=O)Nc1cc(Nc2cc(N3OCC[C@@H]3c3ccc(F)c(C(F)(F)F)c3)ncn2)c(OC)cc1N1C[C@H]2C[C@@H]1CO2 [Compound 45] |
| < 50 | C=CC(=O)Nc1cc(Nc2cc(N3OCC[C@@H]3c3cccc(C(F)(F)F)c3F)ncn2)c(OC)cc1N1CCC(N2C[C@@H]3C[C@H]2CO3)CC1 [Compound 96] |

| GI50 [nM] | SMILES |
| --- | --- |
| < 50 | C=CC(=O)Nc1cc(Nc2cc(N3OCC[C@@H]3c3cccc(C(F)(F)F)c3F)ncn2)c(OC)cc1N1CCC(N2C[C@H]3C[C@@H]2CO3)CC1 [Compound 89] |
| 50 to 500 | C=CC(=O)Nc1cc(Nc2cc(N3OCC[C@@H]3c3cc(F)cc(C(F)(F)F)c3)ncn2)c(OC)cc1N1CCN(C2CC2)[C@H](C)C1 [Compound 5] |
| 50 to 500 | C=CC(=O)Nc1cc(Nc2cc(N3OCC[C@@H]3c3cccc(C(F)(F)F)c3F)ncn2)c(OC)cc1N1CC[C@@H](N(C)C)C1 [Compound 88] |
| < 50 | C=CC(=O)Nc1cc(Nc2cc(N3OCC[C@@H]3c3cccc(C(F)(F)F)c3F)ncn2)c(OC)cc1N1CCC(N2CCOCC2)CC1 [Compound 66] |
| < 50 | C=CC(=O)Nc1cc(Nc2cc(N3OCC[C@@H]3c3ccc(F)c(C(F)(F)F)c3)ncn2)c(OC)cc1N1CCC(N2CCOCC2)CC1 [Compound 64] |
| 50 to 500 | C=CC(=O)Nc1cc(Nc2cc(N3OCC[C@@H]3c3cc(F)cc(F)c3)ncn2)c(OC)cc1N1CCSCC1 [Compound 107] |
| 50 to 500 | C=CC(=O)Nc1cc(Nc2cc(N3OCC[C@@H]3c3cc(F)cc(C(F)(F)F)c3)ncn2)c(OC)cc1N1CCN(C)CC1 [Compound 3] |
| < 50 | C=CC(=O)Nc1cc(Nc2cc(N3OCC[C@@H]3c3cc(F)cc(F)c3)ncn2)c(OC)cc1SCCN(C)C [Compound 101] |
| < 50 | C=CC(=O)Nc1cc(Nc2cc(N3OCC[C@@H]3c3ccc(F)c(C(F)(F)F)c3)ncn2)c(OC)cc1N1CCN(CC2CC2)CC1 [Compound 42] |
| < 50 | C=CC(=O)Nc1cc(Nc2cc(N3OCC[C@@H]3c3cccc(C(F)(F)F)c3F)ncn2)c(OC)cc1OCCN(C)C [Compound 70] |
| 50 to 500 | C=CC(=O)Nc1cc(Nc2cc(N3OCC[C@@H]3c3cc(F)cc(C(F)(F)F)c3)ncn2)c(OC)cc1N1CCN(C2CC2)CC1 [Compound 2] |
| < 50 | C=CCN1CCN(c2cc(OC)c(Nc3cc(N4OCC[C@@H]4c4cccc(C(F)(F)F)c4F)ncn3)cc2NC(=O)C=C)CC1 [Compound 94] |
| < 50 | C=CC(=O)Nc1cc(Nc2cc(N3OCC[C@@H]3c3ccc(F)c(C(F)(F)F)c3)ncn2)c(OC)cc1N1CCC(N(C)C)CC1 [Compound 39] |
| 50 to 500 | C=CC(=O)Nc1cc(Nc2cc(N3OCC[C@@H]3c3cccc(C(F)(F)F)c3F)ncn2)c(OC)cc1N1CCC(N2CCN(C)C(=O)C2)CC1 [Compound 74] |
| < 50 | C=CC(=O)Nc1cc(Nc2cc(N3OCC[C@@H]3c3ccc(F)c(C(F)(F)F)c3)ncn2)c(OC)cc1N1CCN(CC)CC1 [Compound 38] |
| 50 to 500 | C=CC(=O)Nc1cc(Nc2cc(N3OCC[C@@H]3c3cc(F)cc(C(F)(F)F)c3)ncn2)c(OC)cc1N1CCC(N(C)C)CC1 [Compound 15] |
| < 50 | C=CC(=O)Nc1cc(Nc2cc(N3OCC[C@@H]3c3cccc(C(F)(F)F)c3)ncn2)c(OC)cc1N1CCOCC1 [Compound 27] |
| < 50 | C=CC(=O)Nc1cc(Nc2cc(N3OCC[C@@H]3c3cc(F)cc(C(F)(F)F)c3)ncn2)c(OC)cc1N1CCC(N(CC)CC)CC1 [Compound 16] |
| 50 to 500 | C=CC(=O)Nc1cc(Nc2cc(N3OCC[C@@H]3c3cccc(C(F)(F)F)c3)ncn2)c(OC)cc1N1CCN(C2CC2)[C@@H](C)C1 [Compound 10] |
| 50 to 500 | C=CC(=O)Nc1cc(Nc2cc(N3OCCC3c3cc(Cl)cc(C(F)(F)F)c3)ncn2)c(OC)cc1N1CCN(CC)CC1 (stereo not shown) [Compound 50] |
| 50 to 500 | C=CC(=O)Nc1cc(Nc2cc(N3OCC[C@@H]3c3cccc(C(F)(F)F)c3F)ncn2)c(OC)cc1N1CCN(C2CC2)CC1 [Compound 81] |
| < 50 | C=CC(=O)Nc1cc(Nc2cc(N3OCC[C@@H]3c3cccc(C(F)(F)F)c3F)ncn2)c(OC)cc1N1CCN(C)[C@H](C)C1 [Compound 80] |
| < 50 | C=CC(=O)Nc1cc(Nc2cc(N3OCC[C@@H]3c3cccc(C(F)(F)F)c3)ncn2)c(OC)cc1N1CCC(N2CCCC2)CC1 [Compound 22] |
| 50 to 500 | C=CC(=O)Nc1cc(Nc2cc(N3OCCC3c3cccc4c3cnn4C)ncn2)c(OC)cc1N1CCN(C)CC1 (stereo not shown) [Compound 125] |
| < 50 | C=CC(=O)Nc1cc(Nc2cc(N3OCC[C@@H]3c3cccc(C(F)(F)F)c3F)ncn2)c(OC)cc1N1CCC(N2CCN(C3COC3)CC2)CC1 [Compound 84] |
| < 50 | C=CC(=O)Nc1cc(Nc2cc(N3OCC[C@@H]3c3ccc(F)c(C(F)(F)F)c3)ncn2)c(OC)cc1N(C)CCN(C)C [Compound 36] |
| 50 to 500 | C=CC(=O)Nc1cc(Nc2cc(N3OCC[C@@H]3c3cccc(C(F)(F)F)c3)ncn2)c(OC)cc1N1CCN(C2CC2)[C@H](C)C1 [Compound 9] |
